Measurements reported in the NIST ThermoML archive (doi:10.1021/acs.jced.7b00107).
± gives the expanded uncertainty stated by the source.

What was measured:
[1] = for molar entropy: 101.33 kPa; for Triple point temperature: Adiabatic calorimetry
[2] = Molar enthalpy of transition or fusion; conditions: Adiabatic calorimetry

Q: With `Cl.NC12CC3CC(CC(C3)C1)C2` [1-aminoadamantane hydrochloride] as the molecule, how does the molar entropy ([1]; 5 K, Crystal 3, Small (less than 1 g) adiabatic calorimetry) read?
A: The molar entropy was 0.1924 ± 0.028 J/K/mol.

Q: And the molar entropy ([1]; 10 K, Crystal 3, Small (less than 1 g) adiabatic calorimetry)?
A: Its molar entropy is 1.564 ± 0.063 J/K/mol.

Q: What about the molar entropy ([1]; 15 K, Crystal 3, Small (less than 1 g) adiabatic calorimetry) of the same molecule?
A: Its molar entropy is 4.477 ± 0.13 J/K/mol.

Q: And the molar entropy ([1]; 20 K, Crystal 3, Small (less than 1 g) adiabatic calorimetry)?
A: Its molar entropy is 8.48 ± 0.18 J/K/mol.

Q: And the molar entropy ([1]; 25 K, Crystal 3, Small (less than 1 g) adiabatic calorimetry)?
A: The molar entropy was 13.09 ± 0.23 J/K/mol.

Q: And the molar entropy ([1]; 30 K, Crystal 3, Small (less than 1 g) adiabatic calorimetry)?
A: The molar entropy was 17.99 ± 0.28 J/K/mol.

Q: And the molar entropy ([1]; 35 K, Crystal 3, Small (less than 1 g) adiabatic calorimetry)?
A: The molar entropy was 22.99 ± 0.32 J/K/mol.

Q: What about the molar entropy ([1]; 40 K, Crystal 3, Small (less than 1 g) adiabatic calorimetry) of the same molecule?
A: Its molar entropy is 27.96 ± 0.36 J/K/mol.

Q: What about the molar entropy ([1]; 45 K, Crystal 3, Small (less than 1 g) adiabatic calorimetry) of the same molecule?
A: Its molar entropy is 32.87 ± 0.39 J/K/mol.

Q: And the molar entropy ([1]; 50 K, Crystal 3, Small (less than 1 g) adiabatic calorimetry)?
A: Its molar entropy is 37.68 ± 0.43 J/K/mol.

Q: And the molar entropy ([1]; 60 K, Crystal 3, Small (less than 1 g) adiabatic calorimetry)?
A: Its molar entropy is 46.99 ± 0.51 J/K/mol.

Q: And the molar entropy ([1]; 70 K, Crystal 3, Small (less than 1 g) adiabatic calorimetry)?
A: Its molar entropy is 55.88 ± 0.58 J/K/mol.

Q: What about the molar entropy ([1]; 80 K, Crystal 3, Small (less than 1 g) adiabatic calorimetry) of the same molecule?
A: The molar entropy was 64.42 ± 0.65 J/K/mol.

Q: And the molar entropy ([1]; 90 K, Crystal 3, Small (less than 1 g) adiabatic calorimetry)?
A: The molar entropy was 72.68 ± 0.73 J/K/mol.

Q: What about the molar entropy ([1]; 100 K, Crystal 3, Small (less than 1 g) adiabatic calorimetry) of the same molecule?
A: Its molar entropy is 80.74 ± 0.8 J/K/mol.

Q: What about the molar entropy ([1]; 110 K, Crystal 3, Small (less than 1 g) adiabatic calorimetry) of the same molecule?
A: Its molar entropy is 88.67 ± 0.85 J/K/mol.

Q: And the molar entropy ([1]; 120 K, Crystal 2, Small (less than 1 g) adiabatic calorimetry)?
A: Its molar entropy is 96.9 ± 0.93 J/K/mol.

Q: What about the molar entropy ([1]; 120 K, Crystal 3, Small (less than 1 g) adiabatic calorimetry) of the same molecule?
A: The molar entropy was 96.53 ± 0.91 J/K/mol.

Q: What about the molar entropy ([1]; 123.1 K, Crystal 1, Small (less than 1 g) adiabatic calorimetry) of the same molecule?
A: The molar entropy was 100.6 ± 1 J/K/mol.

Q: And the molar entropy ([1]; 123.1 K, Crystal 2, Small (less than 1 g) adiabatic calorimetry)?
A: The molar entropy was 99.33 ± 0.95 J/K/mol.

Q: What about the molar entropy ([1]; 130 K, Crystal 1, Small (less than 1 g) adiabatic calorimetry) of the same molecule?
A: Its molar entropy is 106 ± 1 J/K/mol.

Q: And the molar entropy ([1]; 140 K, Crystal 1, Small (less than 1 g) adiabatic calorimetry)?
A: The molar entropy was 113.7 ± 1.1 J/K/mol.

Q: And the molar entropy ([1]; 150 K, Crystal 1, Small (less than 1 g) adiabatic calorimetry)?
A: Its molar entropy is 121.3 ± 1.2 J/K/mol.

Q: What about the molar entropy ([1]; 160 K, Crystal 1, Small (less than 1 g) adiabatic calorimetry) of the same molecule?
A: Its molar entropy is 128.7 ± 1.2 J/K/mol.

Q: And the molar entropy ([1]; 170 K, Crystal 1, Small (less than 1 g) adiabatic calorimetry)?
A: The molar entropy was 136 ± 1.2 J/K/mol.

Q: What about the molar entropy ([1]; 180 K, Crystal 1, Small (less than 1 g) adiabatic calorimetry) of the same molecule?
A: The molar entropy was 143.3 ± 1.3 J/K/mol.

Q: What about the molar entropy ([1]; 190 K, Crystal 1, Small (less than 1 g) adiabatic calorimetry) of the same molecule?
A: Its molar entropy is 150.5 ± 1.4 J/K/mol.

Q: And the molar entropy ([1]; 200 K, Crystal 1, Small (less than 1 g) adiabatic calorimetry)?
A: The molar entropy was 157.7 ± 1.4 J/K/mol.

Q: And the molar entropy ([1]; 210 K, Crystal 1, Small (less than 1 g) adiabatic calorimetry)?
A: Its molar entropy is 164.8 ± 1.5 J/K/mol.

Q: And the molar entropy ([1]; 220 K, Crystal 1, Small (less than 1 g) adiabatic calorimetry)?
A: Its molar entropy is 172 ± 1.5 J/K/mol.

Q: What about the molar entropy ([1]; 230 K, Crystal 1, Small (less than 1 g) adiabatic calorimetry) of the same molecule?
A: Its molar entropy is 179.1 ± 1.5 J/K/mol.

Q: What about the molar entropy ([1]; 240 K, Crystal 1, Small (less than 1 g) adiabatic calorimetry) of the same molecule?
A: The molar entropy was 186.3 ± 1.6 J/K/mol.

Q: And the molar entropy ([1]; 250 K, Crystal 1, Small (less than 1 g) adiabatic calorimetry)?
A: The molar entropy was 193.4 ± 1.7 J/K/mol.

Q: And the molar entropy ([1]; 260 K, Crystal 1, Small (less than 1 g) adiabatic calorimetry)?
A: The molar entropy was 200.6 ± 1.7 J/K/mol.

Q: And the molar entropy ([1]; 270 K, Crystal 1, Small (less than 1 g) adiabatic calorimetry)?
A: The molar entropy was 207.8 ± 1.7 J/K/mol.

Q: What about the molar entropy ([1]; 280 K, Crystal 1, Small (less than 1 g) adiabatic calorimetry) of the same molecule?
A: Its molar entropy is 215 ± 1.9 J/K/mol.

Q: What about the molar entropy ([1]; 290 K, Crystal 1, Small (less than 1 g) adiabatic calorimetry) of the same molecule?
A: Its molar entropy is 222.2 ± 1.9 J/K/mol.

Q: What about the molar entropy ([1]; 298.15 K, Crystal 1, Small (less than 1 g) adiabatic calorimetry) of the same molecule?
A: Its molar entropy is 228.1 ± 1.9 J/K/mol.

Q: What about the molar entropy ([1]; 300 K, Crystal 1, Small (less than 1 g) adiabatic calorimetry) of the same molecule?
A: The molar entropy was 229.5 ± 1.9 J/K/mol.

Q: What about the molar entropy ([1]; 310 K, Crystal 1, Small (less than 1 g) adiabatic calorimetry) of the same molecule?
A: Its molar entropy is 236.7 ± 1.9 J/K/mol.

Q: And the molar entropy ([1]; 320 K, Crystal 1, Small (less than 1 g) adiabatic calorimetry)?
A: Its molar entropy is 244 ± 2.1 J/K/mol.

Q: And the molar entropy ([1]; 330 K, Crystal 1, Small (less than 1 g) adiabatic calorimetry)?
A: The molar entropy was 251.3 ± 2.1 J/K/mol.

Q: And the molar entropy ([1]; 340 K, Crystal 1, Small (less than 1 g) adiabatic calorimetry)?
A: Its molar entropy is 258.6 ± 2.1 J/K/mol.

Q: What about the molar entropy ([1]; 350 K, Crystal 1, Small (less than 1 g) adiabatic calorimetry) of the same molecule?
A: The molar entropy was 265.9 ± 2.2 J/K/mol.

Q: And the molar entropy ([1]; 360 K, Crystal 1, Small (less than 1 g) adiabatic calorimetry)?
A: Its molar entropy is 273.3 ± 2.3 J/K/mol.

Q: And the molar entropy ([1]; 370 K, Crystal 1, Small (less than 1 g) adiabatic calorimetry)?
A: Its molar entropy is 280.6 ± 2.3 J/K/mol.

Q: What about the molar entropy ([1]; 380 K, Crystal 1, Small sample (50 mg) DSC) of the same molecule?
A: Its molar entropy is 288 ± 6.7 J/K/mol.

Q: What about the molar entropy ([1]; 390 K, Crystal 1, Small sample (50 mg) DSC) of the same molecule?
A: The molar entropy was 295.4 ± 6.9 J/K/mol.

Q: And the molar entropy ([1]; 400 K, Crystal 1, Small sample (50 mg) DSC)?
A: Its molar entropy is 302.8 ± 7.2 J/K/mol.

Q: And the molar entropy ([1]; 410 K, Crystal 1, Small sample (50 mg) DSC)?
A: The molar entropy was 310.2 ± 7.5 J/K/mol.

Q: And the molar entropy ([1]; 420 K, Crystal 1, Small sample (50 mg) DSC)?
A: Its molar entropy is 317.6 ± 7.9 J/K/mol.

Q: What about the molar entropy ([1]; 430 K, Crystal 1, Small sample (50 mg) DSC) of the same molecule?
A: The molar entropy was 325 ± 8.2 J/K/mol.

Q: And the molar entropy ([1]; 440 K, Crystal 1, Small sample (50 mg) DSC)?
A: Its molar entropy is 332.5 ± 8.6 J/K/mol.

Q: And the molar entropy ([1]; 450 K, Crystal 1, Small sample (50 mg) DSC)?
A: Its molar entropy is 339.9 ± 9 J/K/mol.

Q: What about the molar entropy ([1]; 460 K, Crystal 1, Small sample (50 mg) DSC) of the same molecule?
A: Its molar entropy is 347.3 ± 9.4 J/K/mol.

Q: What about the molar entropy ([1]; 470 K, Crystal 1, Small sample (50 mg) DSC) of the same molecule?
A: Its molar entropy is 354.8 ± 9.8 J/K/mol.

Q: What about the Triple point temperature ([1]; Crystal 2) of the same molecule?
A: Its Triple point temperature is 123.1 ± 0.4 K.

Q: What about the Triple point temperature ([1]; Crystal 3) of the same molecule?
A: Its Triple point temperature is 120 ± 0.4 K.

Q: And the “Molar enthalpy of transition or fusion” value ([2]; Crystal 2)?
A: Its value is 0.0366 ± 0.000717 kcal/mol.

Q: What about the “Molar enthalpy of transition or fusion” value ([2]; Crystal 3) of the same molecule?
A: Its value is 0.0108 ± 0.000717 kcal/mol.
